In brackets after ≈: the same amount, converted by molar mass.
How the values were obtained:
Staphylococcus aureus = test: Minimum inhibitory concentration against Quinolone Resistant Staphylococcus aureus LF11C128B Strain.; assay type: functional
Staphylococcus hominis = test: Minimum inhibitory concentration against Quinolone sensitive Staphylococcus hominis IP8203 Strain.; assay type: functional

SMILES	MIC (Staphylococcus aureus)	MIC (Staphylococcus hominis)
Cn1cc(C(=O)O)c(=O)c2cc3cc(F)c(N4CCCCCCC4)cc3nc21	1 µg/mL (≈ 2.61 µM)	1 µg/mL (≈ 2.61 µM)
CSCc1cccc(N2CCN(c3cc4nc5c(cc4cc3F)c(=O)c(C(=O)O)cn5C)CC2)c1	4 µg/mL (≈ 8.12 µM)	4 µg/mL (≈ 8.12 µM)
Cn1cc(C(=O)O)c(=O)c2cc3cc(F)c(N4CCN(Cc5ccc(F)cc5)CC4)cc3nc21	1 µg/mL (≈ 2.15 µM)	0.5 µg/mL (≈ 1.08 µM)
C/C(=C\C(=O)OCCCCCCCCC(=O)[O-])C[C@@H]1OC[C@H](C[C@@H]2O[C@H]2[C@@H](C)[C@H](C)O)[C@@H](O)[C@H]1O.C/C(=C\C(=O)OCCCCCCCCC(=O)[O-])C[C@@H]1OC[C@H](C[C@@H]2O[C@H]2[C@@H](C)[C@H](C)O)[C@@H](O)[C@H]1O.[Ca+2]	0.5 µg/mL	0.5 µg/mL
C[N+](C)(C)CCO.Cn1cc(C(=O)[O-])c(=O)c2cc3cc(F)c(N4CCN(c5ccc(F)cc5)CC4)cc3nc21	0.5 µg/mL	0.25 µg/mL
Cn1cc(C(=O)O)c(=O)c2cc3cc(F)c(NC4CCCCC4)cc3nc21	1 µg/mL (≈ 2.71 µM)	1 µg/mL (≈ 2.71 µM)
CCn1cc(C(=O)O)c(=O)c2cc(F)c(N3CCN(C)CC3)cc21 [PEFLOXACIN]		0.5 µg/mL (≈ 1.5 µM)
